From patent publication US12274775B2, “Fatty acid esters as anti-Malassezia agents” (SYMRISE AG, priority 2019, dated 2025)
Converted amounts (≈) assume the structure as drawn. Like-named read-outs stand apart in the source and are kept apart here.

Assays:
Assay in all cases: Agar dilution test on mDixon agar, minimal inhibitory concentration (MIC)
Type in all cases: cell-based
[1] = system: M. globosa; conditions: agar dilution, pH 5.5, 32° C., up to 14 days; for MIC: Malassezia globosa, read-out: Minimal inhibitory concentration (MIC)
Procedure: (§1) The fatty acid esters and their mixtures were tested for growth inhibition against Malassezia. The following reference strains were included:
(§2) Tests were performed on solid media using agar dilution tests. Stock solutions of test substances were prepared in mDixon-Agar (cf. Table 2). Lower test concentrations were obtained by diluting stock solutions with fresh agar.
(§3) Preparation of liquid agar was carried out in temperated water bath. Required amounts of test substances were weighed in 130 ml of Dixon Agar and mixed with fresh Dixon-Agar to reach desired concentrations of test substances. Agar solutions with test substances were then poured into 24 well-plates. The pH value in all assays was maintained at 5.5. Preparation of test substances was done on weight per volume base. All results are expressed in parts per million (1 ppm=0.0001%).
(§4) Briefly, Malassezia strains were cultivated on selective agar for pathogenic fungi (Merck) and overlaid with a thin layer of cold-sterilized olive oil. […] Incubation was carried out at 32° C. over a maximal duration of 14 days with regular inspection and documentation of growth status. Minimal inhibitory concentrations (MICs) were determined as the lowest concentrations of test compound without visible growth. Each experiment was repeated to confirm results.

[2] = system: M. restricta; conditions: M. restricta CBS 7877, agar dilution, pH 5.5, 32° C., up to 14 days; for MIC: 336 h, read-out: Minimal inhibitory concentration (MIC)
Procedure: as §1, §2, §3, §4

[3] = system: M. sympodialis; conditions: up to 14 days; for MIC: 336 h, read-out: Minimal inhibitory concentration (MIC)
Procedure: as §1, §2, §3, §4

[4] = system: M. furfur; conditions: agar dilution, pH 5.5, 32° C., up to 14 days; for MIC: Malassezia furfur, read-out: Minimal inhibitory concentration (MIC)
Procedure: as §1, §2, §3, §4

[5] = system: M. pachydermatis; conditions: agar dilution, pH 5.5, 32° C., up to 14 days; for MIC: Malassezia pachydermatis, read-out: Minimal inhibitory concentration (MIC)
Procedure: as §1, §2, §3, §4

[6] = CBS7705, 336 h, M. globosa CBS 7705
[7] = CBS7966, 336 h, M. globosa CBS 7966
[8] = pH 5.5, M. sympodialis ATCC 42132, pH 5.5, 32° C.
[9] = pH 5.5, M. sympodialis CBS 7222, pH 5.5, 32° C.
[10] = pH 5.5, M. sympodialis CBS 7979, pH 5.5, 32° C.
[11] = pH 5.5, M. sympodialis DSM 6171, pH 5.5, 32° C.
[12] = M. sympodialis ATCC 42132, pH 5.5, 32° C.
[13] = M. sympodialis CBS 7222, pH 5.5, 32° C.
[14] = M. sympodialis CBS 7979, pH 5.5, 32° C.
[15] = M. sympodialis DSM 6171, pH 5.5, 32° C.
[16] = CBS1878, 336 h, M. furfur CBS 1878
[17] = CBS7019, 336 h, M. furfur CBS 7019
[18] = CBS1879, 336 h, M. pachydermatis CBS 1879

Compound	MIC ([1]; 336 h, M. globosa PM1) [µg/mL]	MIC [1, 6] [µg/mL]	MIC [1, 7] [µg/mL]	MIC [2] [µg/mL]	MIC [3, 8] [µg/mL]	MIC [3, 9] [µg/mL]	MIC [3, 10] [µg/mL]	MIC [3, 11] [µg/mL]	Minimal inhibitory concentration (MIC) ([1]; M. globosa CBS 7966) [ppm]	Minimal inhibitory concentration (MIC) ([1]; M. globosa PM1) [ppm]	Minimal inhibitory concentration (MIC) ([4]; M. furfur CBS 1878) [ppm]	Minimal inhibitory concentration (MIC) ([4]; M. furfur CBS 7019) [ppm]	further results
CCCCCCCCC(O)CO (stereo not shown) [1,2-Decandiol]	8000 (≈ 45.9 mM)	8000 (≈ 45.9 mM)	8000 (≈ 45.9 mM)	1000 (≈ 5.74 mM)	1000 (≈ 5.74 mM)	1000 (≈ 5.74 mM)	2000 (≈ 11.5 mM)	4000 (≈ 23 mM)					
CCCCCCCCCCC(O)CO (stereo not shown) [1,2-Dodecandiol]	40000 (≈ 198 mM)	40000 (≈ 198 mM)	40000 (≈ 198 mM)	8000 (≈ 39.5 mM)	2000 (≈ 9.88 mM)	4000 (≈ 19.8 mM)	4000 (≈ 19.8 mM)	4000 (≈ 19.8 mM)					
CCCCC(O)CO (stereo not shown) [1,2-Hexandiol]	5000 (≈ 42.3 mM)	10000 (≈ 84.6 mM)	5000 (≈ 42.3 mM)	5000 (≈ 42.3 mM)	10000 (≈ 84.6 mM)	10000 (≈ 84.6 mM)	10000 (≈ 84.6 mM)	10000 (≈ 84.6 mM)					
CCCCCCC(O)CO (stereo not shown) [1,2-Octandiol]	2000 (≈ 13.7 mM)	4000 (≈ 27.4 mM)	2000 (≈ 13.7 mM)	1000 (≈ 6.84 mM)	2000 (≈ 13.7 mM)	2000 (≈ 13.7 mM)	2000 (≈ 13.7 mM)	2000 (≈ 13.7 mM)					
CCCC(O)CO (stereo not shown) [1,2-Pentandiol]	10000 (≈ 96 mM)	20000 (≈ 192 mM)	10000 (≈ 96 mM)	10000 (≈ 96 mM)	20000 (≈ 192 mM)	20000 (≈ 192 mM)	20000 (≈ 192 mM)	20000 (≈ 192 mM)					
OCCCO [1,3-Propandiol]									40000	33000			Minimal inhibitory concentration (MIC) ([1]; M. globosa CBS 7705): 80000 ppm; Minimal inhibitory concentration (MIC) [2]: 33000 ppm; Minimal inhibitory concentration (MIC) [3, 12]: 40000 ppm; Minimal inhibitory concentration (MIC) [3, 13]: 33000 ppm; Minimal inhibitory concentration (MIC) [3, 14]: 80000 ppm; Minimal inhibitory concentration (MIC) [3, 15]: 80000 ppm
CCCCCCCC(=O)OCC(CO)OC(=O)CCCCCCC (stereo not shown) [3-Hydroxypropyl dicaprylate]									8000	8000	>20000	20000	Minimal inhibitory concentration (MIC) [3, 12]: 4000 ppm; Minimal inhibitory concentration (MIC) [3, 13]: 20000 ppm; Minimal inhibitory concentration (MIC) [3, 14]: 20000 ppm; Minimal inhibitory concentration (MIC) [3, 15]: 20000 ppm
C=CCCCCCCCCC(=O)OCC(CO)OC(=O)CCCCCCCCC=C (stereo not shown) [3-Hydroxypropyl diundecylenoate]									10000	10000	>20000	>20000	
CCCCCCCC(=O)O [Caprylic acid, caprylic acid]	500 (≈ 3.47 mM)		1000 (≈ 6.93 mM)	200 (≈ 1.39 mM)	330 (≈ 2.29 mM)	330 (≈ 2.29 mM)	1000 (≈ 6.93 mM)	500 (≈ 3.47 mM)					MIC [4, 16]: 1000 µg/mL (≈ 6.93 mM); MIC [4, 17]: 2000 µg/mL (≈ 13.9 mM); MIC ([5]; 336 h, M. pachydermatis 1892): 200 µg/mL (≈ 1.39 mM); MIC [5, 18]: 100 µg/mL (≈ 0.693 mM)
CCCCCCCC(=O)OCC [Ethyl caprylate]	1000 (≈ 5.8 mM)		1000 (≈ 5.8 mM)	4000 (≈ 23.2 mM)	1000 (≈ 5.8 mM)	1000 (≈ 5.8 mM)	1000 (≈ 5.8 mM)	1000 (≈ 5.8 mM)					MIC [4, 16]: > 20000 µg/mL; MIC [4, 17]: 10000 µg/mL (≈ 58 mM); MIC ([5]; 336 h, M. pachydermatis 1892): 1000 µg/mL (≈ 5.8 mM); MIC [5, 18]: < 500 µg/mL
C=CCCCCCCCCC(=O)OCC(COC(=O)CCCCCCCCC=C)OC(=O)CCCCCCCCC=C [Glyceryl triundecylenoate]									>20000	8000	10000	>20000	Minimal inhibitory concentration (MIC) ([1]; M. globosa CBS 7705): 8000 ppm; Minimal inhibitory concentration (MIC) ([5]; M. pachydermatis 1892): 4000 ppm; Minimal inhibitory concentration (MIC) ([5]; M. pachydermatis CBS 1879): 4000 ppm; Minimal inhibitory concentration (MIC) [2]: 4000 ppm
PEG-9-undecylenoate									10000	8000	20000	>20000	Minimal inhibitory concentration (MIC) ([5]; M. pachydermatis 1892): 8000 ppm; Minimal inhibitory concentration (MIC) ([5]; M. pachydermatis CBS 1879): 8000 ppm; Minimal inhibitory concentration (MIC) [2]: 4000 ppm
